In patent publication US20260041653A1, “AN HDAC INHIBITOR FOR TREATING CANCER WITH A MODIFIED STK11 ACTIVITY OR EXPRESSION” (Tango Therapeutics, Inc., priority 2022, published 2026):

Tests used:
[1] = target: T1, HDAC10 (Homo sapiens, UniProt Q969S8); assay: Cellular NanoBRET assay, HDAC10; assay type: cell-based
T1 construct: expressed in transfected cells

[2] = target: T2, HDAC6 (Homo sapiens, UniProt Q9UBN7); assay: Cellular NanoBRET assay, HDAC6; assay type: cell-based
T2 construct: expressed in transfected cells

[3] = target: CYP2C19 (Homo sapiens, UniProt P33261); assay: Metabolism by recombinant human CYP2C19; assay type: in vitro ADME; details: read-out: terminal half life (T1/2), rh CYP2C19
Method: (§1) Drug metabolizing enzymes involved in the biotransformation of Compound I were investigated using human liver microsomes (HLM) and recombinant enzymes. Compound I was stable in HLMs (>93% remaining after 240 minutes of incubation with HLM protein concentration at 0.6 mg/ml). CYP selective inhibitor experiments were not performed due to lack of appreciable Compound I turnover.

[4] = target: CYP2B6 (Homo sapiens, UniProt P20813); assay: Metabolism by recombinant human CYP2B6; assay type: in vitro ADME; details: read-out: terminal half life (T1/2), rh CYP2B6
Method: as §1

[5] = test system: CT26_STK11KO tumor (KRAS G12D); assay: Anti-tumor efficacy in CT26_STK11KO colon carcinoma model; assay type: in vivo, mouse; details: for ORR % / TGI %: CT26 STK11KO
Method: In this example, the anti-tumor activity of a combination treatment of anti-PD1 antibody with Compound I was determined in vivo in STK11-deleted syngeneic mouse models.
Briefly, mice were inoculated with STK11-deleted CT26 (murine colorectal carcinoma cell line) tumor model in a manner similar to that described in Example 1. The tumor model was resistant to murine anti-PD1 antibody by knockout of the STK11. Mice were treated with Compound I orally once daily and with anti-PD1, anti-IgG2a control, or anti-PD1 control twice per week as indicated. Tumor volume and survival was monitored over the course of treatment and plotted by individual animal for tumor volume (FIG. 7A) and by group for survival (FIG. 7B).
(§2) An in vivo anti-tumor efficacy of combination treatment of Anti-PD1 and Compound I in a CT26 mouse model was evaluated. CT26 is a colon carcinoma cell line with an endogenous KRAS G12D mutation. The experiment was performed in the parental/wild type line and in a line engineered with an STK11 knock-out (CT26_STK11KO) resulting in an anti-PD1 resistant model with lower CD8+ T cell infiltration.
In each of the experiments, the animals (8/group) were divided into four groups. Group I was treated with a control antibody Anti-IgG2, group 2 was treated with Compound I 75 mg/kg, group 3 was treated with anti-PD1 antibody, and group 4 was treated with Compound I 75 mg/kg and anti-PD1 antibody. Tumor volume and survival was monitored over the course of treatment. For the CT26_STK11KO model, the tumor volume was plotted by individual animal (FIG. 15A) and by treatment group (FIG. 15B). Survival was plotted by treatment group (FIG. 15C).
as §2, with “anti-CTLA4” for “Anti-PD1”, “anti-CTLA4-resistant model.” for “anti-PD1 resistant model with lower CD8+ T cell infiltration.”
An in vivo anti-tumor efficacy of double combination treatment of Anti-CTLA4 and Compound I in a CT26 syngeneic model was performed. CT26 is a colon carcinoma cell line. The experiment was also performed with an STK11-null CT26 model, this model is CTLA4 resistant.
There were 8 mice per group. Group I was treated with a control antibody Anti-IgG2, group 2 was treated with Compound I 75 mg/kg, group 3 was treated with anti-CTLA4 antibody, and group 4 was treated with Compound I 75 mg/kg and anti-CTLA4 antibody. Tumor volume was monitored over the course of treatment. The tumor volume was plotted by treatment group (FIG. 16A), and the individual animals were plotted for group 1 and group 4 (FIG. 16B), for the parental model. The tumor volume was plotted by treatment group (FIG. 16C), and the individual animals were plotted for group 1 and group 4 (FIG. 16D), for the STK11 knockout model.

[6] = test system: A549 cells; assay: Nanostring PanCancer IO360 profiling of A549 cells; assay type: cell-based; details: 96 hours; dose that increased H3K9Ac two-fold; vs vorinostat and domatinostat
Method: In this example, the gene expression changes between CoreDAC and other HDAC inhibitors was determined by Nanostring profiling.
Cells were harvested and Nanostring profiling using the PanCancer IO360 panel was performed on the three treatment groups (FIGS. 11A-C). The top three ranked gene ontology groups for each compound as determined from the Nanostring data in (FIGS. 11A-C top panel) were determined using the nSolver software (FIGS. 11A-C bottom panel).

[7] = test system: STK11-null 3LL tumor; assay: Anti-tumor efficacy in PD-1 resistant STK11-null 3LL model; assay type: in vivo; details: Compound I 75 mg/kg, Anti-PD1 10 mg/kg
Method: An in vivo anti-tumor efficacy of double combination treatment of Anti-PD1 and Compound I in a PD-1 resistant STK11-null 3LL model was performed. The parental (non STK11KO) 3LL line is relatively resistant to anti-PD1 treatment.
The animals (8/group) were divided into 4 groups: Group I was treated with a control antibody Anti-IgG2, group 2 was treated with anti-PD1 antibody, group 3 was treated with Compound I 75 mg/kg, and group 4 was treated with Compound 1 75 mg/kg and anti-PD1 antibody. Tumor volume and survival was monitored over the course of treatment. The tumor volume and survival was plotted by treatment group (FIG. 17A and FIG. 17B, respectively). The combination treatment with Compound I decreased the PD-1 resistance of this model caused by the SKT11 knockout to the baseline characteristic of the parental line as shown by Group 4's decreased tumor volume and increased survival over time compared to the other groups.

[8] = target: CYP1A2 (Homo sapiens, UniProt P05177); assay: Metabolism by recombinant human CYP1A2; assay type: in vitro ADME; details: read-out: terminal half life (T1/2), rh CYP1A2
Method: as §1

[9] = Tolerated and efficacious dose ranges in vivo
Method: Briefly, a colony forming unit assay was performed in vitro to evaluate the impact of HDAC inhibitors on the viability of erythroid and myeloid cells. Cells were treated with a dose response of each compound for 14 days. Cell colonies were quantified at the end of the experiment and compared to a solvent control. The efficacious dose range of Compound I was also plotted (the range was between 3 mg/kg and 75 mg/kg) (FIG. 12A). The IC50s for each compound were calculated from the erythroid and myeloid colony formation unit assay. These IC50s were normalized to the compound's potency against HDAC1 in the cellular NanoBRET assay to allow for head-to-head compound comparison (Table 4-1).
Compound I concentrations to HDAC1 or HDAC3 inhibition in vivo were plotted in FIG. 12D. Shaded boxes indicate tolerated and efficacious dose ranges of Compound I. Non-tolerated exposures were over 150 mg/kg.

[10] = Compound I 75 mg/kg QD alone, second of two values (two experiments, Examples 14 and 15)
[11] = Compound I 75 mg/kg QD, antibodies 10 mg/kg, for Compound I alone the first of two printed values

T1 sequence (Q969S8 whole entry): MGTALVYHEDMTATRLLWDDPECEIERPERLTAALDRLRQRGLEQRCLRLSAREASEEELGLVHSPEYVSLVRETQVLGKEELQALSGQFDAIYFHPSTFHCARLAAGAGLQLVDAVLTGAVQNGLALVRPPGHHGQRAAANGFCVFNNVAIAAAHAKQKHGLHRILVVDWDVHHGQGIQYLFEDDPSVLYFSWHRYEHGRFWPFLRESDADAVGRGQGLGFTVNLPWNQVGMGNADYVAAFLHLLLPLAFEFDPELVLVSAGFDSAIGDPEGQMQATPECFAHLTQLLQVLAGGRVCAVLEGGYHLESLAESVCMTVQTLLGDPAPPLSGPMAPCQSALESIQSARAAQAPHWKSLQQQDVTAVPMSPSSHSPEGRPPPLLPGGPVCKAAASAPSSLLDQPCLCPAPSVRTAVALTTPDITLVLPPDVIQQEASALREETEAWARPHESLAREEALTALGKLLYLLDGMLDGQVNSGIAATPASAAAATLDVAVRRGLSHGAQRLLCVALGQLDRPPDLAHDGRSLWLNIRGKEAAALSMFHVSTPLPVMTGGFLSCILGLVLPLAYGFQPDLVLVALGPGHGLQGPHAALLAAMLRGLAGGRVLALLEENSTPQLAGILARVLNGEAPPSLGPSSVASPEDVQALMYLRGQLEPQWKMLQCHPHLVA
T2 sequence (Q9UBN7 whole entry): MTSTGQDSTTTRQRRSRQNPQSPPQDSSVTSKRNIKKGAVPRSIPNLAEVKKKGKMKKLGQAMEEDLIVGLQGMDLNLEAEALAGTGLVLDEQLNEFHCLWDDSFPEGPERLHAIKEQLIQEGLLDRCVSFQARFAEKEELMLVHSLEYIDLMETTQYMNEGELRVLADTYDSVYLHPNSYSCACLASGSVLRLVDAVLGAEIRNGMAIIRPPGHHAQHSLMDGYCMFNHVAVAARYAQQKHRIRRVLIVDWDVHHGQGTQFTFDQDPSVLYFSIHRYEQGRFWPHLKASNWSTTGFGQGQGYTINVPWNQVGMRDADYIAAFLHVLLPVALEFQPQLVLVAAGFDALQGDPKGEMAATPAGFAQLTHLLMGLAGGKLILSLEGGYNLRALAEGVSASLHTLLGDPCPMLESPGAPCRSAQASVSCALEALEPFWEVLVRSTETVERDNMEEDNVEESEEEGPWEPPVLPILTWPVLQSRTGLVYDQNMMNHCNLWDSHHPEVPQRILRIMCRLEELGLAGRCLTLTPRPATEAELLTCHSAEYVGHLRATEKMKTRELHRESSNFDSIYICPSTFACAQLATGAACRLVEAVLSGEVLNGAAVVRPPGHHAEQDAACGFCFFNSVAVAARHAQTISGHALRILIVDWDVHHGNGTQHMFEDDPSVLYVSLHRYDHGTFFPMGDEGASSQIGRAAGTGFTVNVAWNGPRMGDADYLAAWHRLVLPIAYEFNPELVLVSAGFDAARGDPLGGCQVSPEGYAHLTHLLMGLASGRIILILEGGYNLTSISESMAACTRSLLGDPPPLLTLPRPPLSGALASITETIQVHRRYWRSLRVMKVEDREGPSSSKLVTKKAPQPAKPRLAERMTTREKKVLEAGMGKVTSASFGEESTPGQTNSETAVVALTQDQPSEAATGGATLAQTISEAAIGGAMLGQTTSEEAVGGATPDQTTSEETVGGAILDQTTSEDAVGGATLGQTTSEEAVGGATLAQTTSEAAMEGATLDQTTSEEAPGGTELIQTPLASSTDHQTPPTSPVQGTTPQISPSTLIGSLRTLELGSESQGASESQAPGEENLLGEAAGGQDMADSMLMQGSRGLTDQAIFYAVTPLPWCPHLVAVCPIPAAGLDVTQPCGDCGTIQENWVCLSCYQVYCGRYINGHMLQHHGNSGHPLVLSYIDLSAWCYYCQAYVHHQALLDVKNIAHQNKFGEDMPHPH
Sequence of CYP1A2 (P05177 whole entry): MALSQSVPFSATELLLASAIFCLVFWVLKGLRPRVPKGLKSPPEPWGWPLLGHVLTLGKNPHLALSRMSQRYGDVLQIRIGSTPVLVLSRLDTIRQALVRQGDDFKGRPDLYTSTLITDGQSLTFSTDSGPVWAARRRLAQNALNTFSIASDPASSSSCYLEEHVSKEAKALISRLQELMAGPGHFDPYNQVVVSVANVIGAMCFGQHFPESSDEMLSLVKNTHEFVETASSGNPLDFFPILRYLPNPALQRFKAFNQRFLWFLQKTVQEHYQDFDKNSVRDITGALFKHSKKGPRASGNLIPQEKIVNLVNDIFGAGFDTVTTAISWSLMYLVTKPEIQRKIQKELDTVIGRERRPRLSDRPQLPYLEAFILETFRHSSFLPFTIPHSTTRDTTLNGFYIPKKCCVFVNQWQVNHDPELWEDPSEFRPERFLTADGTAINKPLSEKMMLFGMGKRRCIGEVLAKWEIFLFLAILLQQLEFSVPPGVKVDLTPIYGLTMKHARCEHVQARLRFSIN
Sequence of CYP2C19 (P33261 whole entry): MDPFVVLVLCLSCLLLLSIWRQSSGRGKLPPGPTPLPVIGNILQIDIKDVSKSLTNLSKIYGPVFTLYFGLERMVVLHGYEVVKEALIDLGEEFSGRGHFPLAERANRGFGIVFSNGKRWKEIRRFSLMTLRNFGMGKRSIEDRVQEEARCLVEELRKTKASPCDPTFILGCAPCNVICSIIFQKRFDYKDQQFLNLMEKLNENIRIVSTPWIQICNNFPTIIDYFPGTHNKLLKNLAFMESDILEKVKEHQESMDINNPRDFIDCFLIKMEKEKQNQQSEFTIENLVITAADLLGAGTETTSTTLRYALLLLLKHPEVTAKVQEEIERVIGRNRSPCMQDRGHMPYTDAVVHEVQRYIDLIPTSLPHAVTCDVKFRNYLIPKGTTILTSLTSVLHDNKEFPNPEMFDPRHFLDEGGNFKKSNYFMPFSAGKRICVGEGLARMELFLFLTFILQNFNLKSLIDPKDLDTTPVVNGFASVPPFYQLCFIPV
Sequence of CYP2B6 (P20813 whole entry): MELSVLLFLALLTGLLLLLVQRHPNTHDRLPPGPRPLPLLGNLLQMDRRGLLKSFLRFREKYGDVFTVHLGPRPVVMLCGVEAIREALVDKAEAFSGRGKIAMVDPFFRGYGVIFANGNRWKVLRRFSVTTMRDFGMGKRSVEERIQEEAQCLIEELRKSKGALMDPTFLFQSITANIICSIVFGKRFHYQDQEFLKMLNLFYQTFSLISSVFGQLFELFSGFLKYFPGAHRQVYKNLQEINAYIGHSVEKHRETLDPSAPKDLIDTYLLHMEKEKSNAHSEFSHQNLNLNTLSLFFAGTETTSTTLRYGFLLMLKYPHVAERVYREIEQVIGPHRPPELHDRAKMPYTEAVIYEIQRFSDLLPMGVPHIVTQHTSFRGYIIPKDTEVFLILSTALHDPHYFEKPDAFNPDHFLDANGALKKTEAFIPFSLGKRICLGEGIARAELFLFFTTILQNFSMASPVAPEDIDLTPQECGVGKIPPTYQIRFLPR

Q: For C[S@@](=N)(=O)c1ccc(C(=O)Nc2cc(-c3ccc(F)cc3)ccc2N)cc1 [Compound I, (R)—N-(4-amino-4′-fluoro-[1,1′-biphenyl]-3-yl)-4-(S-methylsulfonimidoyl)benzamide], which IC50 [1] is on record?
A: The IC50 was > 30 µM.

Q: What about the IC50 [2] of the same molecule?
A: The IC50 was > 30 µM.

Q: And the half-life [3]?
A: Its half-life is > 1 h.

Q: What about the half-life [4] of the same molecule?
A: The half-life was > 1 h.

Q: And the ORR % [5, 10]?
A: The ORR % was 38%.

Q: What about the TGI % [5, 10] of the same molecule?
A: Its TGI % is 70%.

Q: What about the ORR % [5, 11] of the same molecule?
A: Its ORR % is 0%.

Q: What about the TGI % [5, 11] of the same molecule?
A: The TGI % was 39%.

Q: What about the “resistance to immune checkpoint blockade driven by loss of STK11” value ([5]; tumor models for colon adenocarcinoma and colorectal carcinoma (Examples 1 and 5)) of the same molecule?
A: The value was “reverses resistance to immune checkpoint blockade”.

Q: What about the “number of genes regulated” value [6] of the same molecule?
A: Its value is “regulates the expression of fewer genes”.

Q: What about the “Median TTE” value [7] of the same molecule?
A: The value was 18 days.

Q: What about the half-life [8] of the same molecule?
A: The half-life was > 1 h.

Q: And the Non-tolerated exposures [9]?
A: Its Non-tolerated exposures is “over 150 mg/kg”.
